Assay results as given in patent publication US20060275285A1, “Methods of inhibiting a GPCR” (Amgen Inc., priority 2005, published 2006).

What was measured:
[1] = test system: male C57 black 6 mice fed a high fat diet (diet induced obesity); test: GPR23 antisense study in diet induced obesity mice (body composition, serum parameters, liver); format: in vivo; conditions: for body weight: 50 mg/kg IP weekly for 7 weeks (Group 4) vs control animals
Method: (§1) GPR23-specific antisense oligos were generated by Isis Pharmaceuticals (Carlsbad, Calif.) and were evaluated for activity in bEND (murine brain endothelial) cells. […] An oligo without homology to any known gene was provided as a control ([…] (SEQ ID NO:10)). For the studies, male C57 black 6 mice were fed a high fat diet for 12 weeks (from 3 weeks of age) and analyzed for parameters of diet induced obesity. Animals that show appropriate symptoms of diet induced obesity (e.g., hyperinsulemia and weight gain with no signs of illness) were divided into 5 groups (10 animals/group) and treated as described below:
(§2) Group 1 (saline treated control): saline IP injection weekly for 7 weeks;
(§3) Group 2 (universal oligo control): oligo IP injection 50 mg/kg body weight, weekly for 7 weeks;
(§4) Group 3 (GPR23 antisense oligo (ASO) treated): oligo IP injection, 25 mg/kg body weight, weekly for 7 weeks;
(§5) Group 4 (GPR23 ASO treated): oligo IP injection, 50 mg/kg body weight, weekly for 7 weeks; and
(§6) Group 5: (rosiglitizone treated control): 50 mg/kg body weight for 7 weeks.
(§7) Fed glucose measurements were made at the beginning, midpoint and endpoint of the study. A fasting GTT measurement was done at the midpoint and endpoint of the study. Fed plasma samples were tested for insulin, total cholesterol, free fatty acids, triglycerides, and liver enzymes. At the end of the study, animals were sacrificed and tissue samples (liver, white adipose tissue, brown adipose tissue) were taken for histological evaluation and GPR23 mRNA quantitation.

hormone sensitive lipase = test: Gene profiling by real time PCR of adipose tissue: hormone sensitive lipase; format: in vivo, mice; conditions: Groups 3 and 4 (25 and 50 mg/kg)
Method: as §7
(§8) Gene profiling experiments were performed to provide additional insight into the mechanism of action associated with GPR23.

fatty acid synthase mRNA = test: Gene profiling by real time PCR of adipose tissue: fatty acid synthase; format: in vivo, mice; conditions: white adipose tissue; Groups 3 and 4 (25 and 50 mg/kg)
Method: as §7, §8

GPR23 = test: GPR23-specific antisense oligos evaluated for activity in bEND cells; format: cell-based; conditions: bEND (murine brain endothelial) cells
Method: as §1, with “below: […]” for “below:”

PPAR-gamma = test: Gene profiling by real time PCR of adipose tissue: PPAR-gamma; format: in vivo, mice; conditions: Groups 3 and 4 (25 and 50 mg/kg)
Method: as §7, §8

GPR23 mRNA = GPR23 mRNA quantitation by real time PCR in white adipose tissue of diet induced obese mice; format: in vivo; conditions: Groups 3 and 4 (25 and 50 mg/kg IP weekly for 7 weeks) vs Group 2
Method: as §1, §2, §3, §4, §5, §6
Fed glucose measurements were made at the beginning, midpoint and endpoint of the study. […] At the end of the study, animals were sacrificed and tissue samples (liver, white adipose tissue, brown adipose tissue) were taken for histological evaluation and GPR23 mRNA quantitation. […]

[2] = 50 mg/kg IP weekly for 7 weeks (Group 4) vs control oligo (Group 2)
[3] = Groups 3 and 4 (25 and 50 mg/kg), not statistically significant, data not shown

“CTCAGTATCATTAGCTTCAA (listed as DNA, chemistry not given here; listed as Mus musculus) [GPR23 antisense oligo]” was tested, and the body weight [1] was “weighed slightly less than control animals”, the body weight ([1]; listed as antisense oligo) was “weighed less than control animals” and the fat mass [1, 2] was “statistically significant decrease”. The lean mass [1, 2] was “statistically significant increase”, the liver fat scores ([1]; Groups 3 and 4 (25 and 50 mg/kg)) was “lower” and the “liver enzymes (a parameter of toxicity)” value ([1]; Groups 3 and 4 (25 and 50 mg/kg) compared to control groups (Groups 1 and 2)) was “not significantly different”. The “free fatty acid levels” value [1, 3] was “lower”, the triglyceride levels [1, 3] was “lower” and the serum cholesterol levels ([1]; both 25 mg/kg and 50 mg/kg doses (Groups 3 and 4), change from baseline at week 7, relative to controls) was “lowered relative to controls”. For the same sequence, the glucose tolerance tests ([1]; fasting GTT, antisense oligo treatment) was “not affected”, the “levels of hormone sensitive lipase” value (hormone sensitive lipase) was “did not change significantly” and the “fatty acid synthase mRNA levels” value (fatty acid synthase mRNA) was “significantly reduced in a dose-dependent manner”. The “expression of GPR23 in cultured cells” value (GPR23) was “markedly reduced”, the “levels of PPAR-gamma” value (PPAR-gamma) was “did not change significantly” and the “reduction of GPR23 mRNA levels relative to control oligo treated animals” value (GPR23 mRNA) was roughly 70%.
